Measured values from ChEMBL document CHEMBL1201862, “PubChem BioAssay data set” (2004).
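Cells were grown in 96-well plates and exposed to each compound for 48 hours at five concentrations; endpoints were interpolated linearly between bracketing concentrations, or set to the highest concentration if not reached. GI50 is the concentration that inhibits growth by half.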 Calls of active or inactive are those of the source. No stated cut-off is given here; in the data, active = GI50 up to about 1.1 µM and inactive = higher.

Assays:
Assay in all cases: DTP human tumour cell line panel, 48 h
786-0 = system: 786-0
A498 = system: A498
A549 = system: A549
ACHN = system: ACHN
BT-549 = system: BT-549
CAKI-1 = system: CAKI-1
CCRF-CEM = system: CCRF-CEM
COLO 205 = system: COLO 205
DU-145 = system: DU-145
EKVX = system: EKVX
HCC 2998 = system: HCC 2998
HCT-116 = system: HCT-116
HCT-15 = system: HCT-15
HL-60 = system: HL-60
HOP-62 = system: HOP-62
HOP-92 = system: HOP-92
HT-29 = system: HT-29
Hs-578T = system: Hs-578T
IGROV-1 = system: IGROV-1
K562 = system: K562
KM12 = system: KM12
LOX IMVI = system: LOX IMVI
M14 = system: M14
MCF7 = system: MCF7
MDA-MB-231 = system: MDA-MB-231
MDA-MB-435 = system: MDA-MB-435
MOLT-4 = system: MOLT-4
Malme-3M = system: Malme-3M
NCI-H226 = system: NCI-H226
NCI-H23 = system: NCI-H23
NCI-H460 = system: NCI-H460
NCI-H522 = system: NCI-H522
NCI/ADR-RES = system: NCI/ADR-RES
OVCAR-3 = system: OVCAR-3
OVCAR-4 = system: OVCAR-4
OVCAR-5 = system: OVCAR-5
OVCAR-8 = system: OVCAR-8
PC-3 = system: PC-3
RPMI-8226 = system: RPMI-8226
RXF 393 = system: RXF 393
SF-268 = system: SF-268
SF-295 = system: SF-295
SK-MEL-28 = system: SK-MEL-28
SK-MEL-2 = system: SK-MEL-2
SK-MEL-5 = system: SK-MEL-5
SK-OV-3 = system: SK-OV-3
SN12C = system: SN12C
SNB-19 = system: SNB-19
SNB-75 = system: SNB-75
SR = system: SR
SW-620 = system: SW-620
T47D = system: T47D
TK-10 = system: TK-10
U-251 = system: U-251
UACC-257 = system: UACC-257
UACC-62 = system: UACC-62
UO-31 = system: UO-31
SF-539 = system: SF-539

Cn1c2ccccc2n2c3ncccc3c(=O)c(C#N)c12
GI50 (786-0): 8.83 µM (inactive) | GI50 (A498): 10.4 µM (inactive) | GI50 (A549): 5.2 µM (inactive) | GI50 (ACHN): 3.09 µM (inactive) | GI50 (BT-549): 16.5 µM (inactive) | GI50 (CAKI-1): 5.31 µM (inactive) | GI50 (CCRF-CEM): 4.07 µM (inactive) | GI50 (COLO 205): 3.91 µM (inactive) | GI50 (DU-145): 6.5 µM (inactive) | GI50 (EKVX): 32.8 µM (inactive) | GI50 (HCC 2998): 21.5 µM (inactive) | GI50 (HCT-116): 4.81 µM (inactive) | GI50 (HCT-15): 6.18 µM | GI50 (HL-60): 2.09 µM (inactive) | GI50 (HOP-62): 5.18 µM (inactive) | GI50 (HOP-92): 19.5 µM (inactive) | GI50 (HT-29): 5.51 µM (inactive) | GI50 (Hs-578T): 18.9 µM (inactive) | GI50 (IGROV-1): 5.32 µM (inactive) | GI50 (K562): > 100 µM (inactive) | GI50 (KM12): 14.6 µM (inactive) | GI50 (LOX IMVI): 5.96 µM (inactive) | GI50 (M14): 32.3 µM (inactive) | GI50 (MCF7): 3.81 µM (inactive) | GI50 (MDA-MB-231): 17.9 µM (inactive) | GI50 (MDA-MB-435): 26.7 µM (inactive) | GI50 (MOLT-4): 3.04 µM (inactive) | GI50 (Malme-3M): 6.04 µM (inactive) | GI50 (NCI-H226): 1.79 µM (inactive) | GI50 (NCI-H23): 10.2 µM (inactive) | GI50 (NCI-H460): 2.46 µM (inactive) | GI50 (NCI-H522): 9.02 µM (inactive) | GI50 (NCI/ADR-RES): 16.3 µM (inactive) | GI50 (OVCAR-3): 11 µM (inactive) | GI50 (OVCAR-4): 30.7 µM (inactive) | GI50 (OVCAR-5): 24.5 µM (inactive) | GI50 (OVCAR-8): 5.27 µM (inactive) | GI50 (PC-3): 19.5 µM (inactive) | GI50 (RPMI-8226): > 100 µM (inactive) | GI50 (RXF 393): 16.9 µM (inactive) | GI50 (SF-268): 18 µM (inactive) | GI50 (SF-295): 7.69 µM (inactive) | GI50 (SK-MEL-28): 44.2 µM (inactive) | GI50 (SK-MEL-2): 35 µM (inactive) | GI50 (SK-MEL-5): 4.45 µM (inactive) | GI50 (SK-OV-3): 17.3 µM (inactive) | GI50 (SN12C): 8.49 µM (inactive) | GI50 (SNB-19): 8.28 µM (inactive) | GI50 (SNB-75): 12.2 µM (inactive) | GI50 (SR): 3.73 µM (inactive) | GI50 (SW-620): 7.85 µM (inactive) | GI50 (T47D): 15.2 µM (inactive) | GI50 (TK-10): 50.6 µM (inactive) | GI50 (U-251): 6.38 µM (inactive) | GI50 (UACC-257): 26.5 µM (inactive) | GI50 (UACC-62): 8.41 µM (inactive) | GI50 (UO-31): 5.62 µM (inactive)

C=CCN1C(=O)/C(=C/c2ccccc2)N=C1SC/C=C/C
GI50 (786-0): 42.7 µM (inactive) | GI50 (A498): 43.7 µM (inactive) | GI50 (A549): 39.3 µM (inactive) | GI50 (ACHN): 80.4 µM (inactive) | GI50 (BT-549): 51.3 µM (inactive) | GI50 (CAKI-1): > 100 µM (inactive) | GI50 (CCRF-CEM): 27.9 µM (inactive) | GI50 (COLO 205): 52.2 µM (inactive) | GI50 (DU-145): 57.5 µM (inactive) | GI50 (HCC 2998): 28.3 µM (inactive) | GI50 (HCT-116): 34.5 µM (inactive) | GI50 (HCT-15): 47.5 µM | GI50 (HOP-62): > 100 µM (inactive) | GI50 (HOP-92): 12.2 µM (inactive) | GI50 (Hs-578T): 69.5 µM (inactive) | GI50 (IGROV-1): > 100 µM (inactive) | GI50 (K562): 0.0146 µM (active) | GI50 (KM12): 37.4 µM (inactive) | GI50 (LOX IMVI): 49.1 µM (inactive) | GI50 (M14): 71.1 µM (inactive) | GI50 (MCF7): 33.1 µM (inactive) | GI50 (MDA-MB-231): 86.7 µM (inactive) | GI50 (MDA-MB-435): 40.8 µM (inactive) | GI50 (NCI-H226): 31.8 µM (inactive) | GI50 (NCI-H23): 58.7 µM (inactive) | GI50 (NCI-H460): 43.8 µM (inactive) | GI50 (NCI-H522): 33 µM (inactive) | GI50 (NCI/ADR-RES): 49.4 µM (inactive) | GI50 (OVCAR-3): > 100 µM (inactive) | GI50 (OVCAR-4): 31.2 µM (inactive) | GI50 (OVCAR-8): 45.1 µM (inactive) | GI50 (PC-3): 22.3 µM (inactive) | GI50 (RPMI-8226): 15.7 µM (inactive) | GI50 (RXF 393): 15.2 µM (inactive) | GI50 (SF-268): 57.9 µM (inactive) | GI50 (SF-295): 61.2 µM (inactive) | GI50 (SF-539): > 100 µM (inactive) | GI50 (SK-MEL-28): 69.3 µM (inactive) | GI50 (SK-MEL-2): 26.2 µM (inactive) | GI50 (SK-MEL-5): 18.4 µM (inactive) | GI50 (SK-OV-3): > 100 µM (inactive) | GI50 (SN12C): 40.2 µM (inactive) | GI50 (SNB-19): > 100 µM (inactive) | GI50 (SNB-75): 46.2 µM (inactive) | GI50 (SR): 6.67 µM (inactive) | GI50 (SW-620): 46.1 µM (inactive) | GI50 (T47D): 20.2 µM (inactive) | GI50 (TK-10): 79.1 µM (inactive) | GI50 (U-251): 48.1 µM (inactive) | GI50 (UACC-257): 28.3 µM (inactive) | GI50 (UACC-62): 51.5 µM (inactive) | GI50 (UO-31): 39.9 µM (inactive)
